US9290486B1, “Compositions and methods for the treatment of epilepsy” (CELLIX BIO PRIVATE LIMITED, priority 2014, dated 2016)
Like-named read-outs stand apart in the source and are kept apart here.

Test: Blood and cerebrospinal fluid pharmacokinetics after acute intraperitoneal administration in freely moving rats
Assay type: in vivo
Settings: for serum and CSF concentrations versus dose: intraperitoneal, 20, 40 and 80 mg/kg; for Elimination half-life (t1/2)-CSF (Mean) / penetration of the blood brain barrier / Elimination half-life (t1/2)-Serum (Mean): intraperitoneal; for penetration of the blood brain barrier: appearance in serum and CSF; for Tmax: rat, ip, acute intraperitoneal, 20, 40 and 80 mg/kg
Protocol: Blood and Cerebrospinal Fluid Pharmacokinetics in Comparison of the Levetiracetam and Formula II (2-1) in Rats
The temporal pharmacokinetic interrelationship of levetiracetam and Formula II (2-1) in blood and cerebrospinal fluid (CSF) was studied after acute intraperitoneal administration of levetiracetam and Formula II (2-1), (20, 40 and 80 mg/kg), using an animal model that permits concurrent blood and CSF sampling in freely moving rats.

[1] = cerebrospinal fluid, read-out: Tmax mean range, CSF
[2] = serum, read-out: time to maximum concentration (Tmax) mean range, serum

Structure (SMILES)	serum and CSF concentrations versus dose	Elimination half-life (t1/2)-CSF (Mean) [h]	penetration of the blood brain barrier	Elimination half-life (t1/2)-Serum (Mean) (serum) [h]	Tmax [1] [h]	Tmax [2] [h]
CC[C@@H](C(=O)NC(=O)OC(C)OC(=O)CCCC[C@@H]1CCSS1)N1CCCC1=O (stereo partly drawn) [Formula II (2-1)]	rose essentially linearly and dose-dependently	4.8 to 5.6	ready penetration of the blood brain barrier	2.3 to 3.4	2.14 to 2.83	0.47 to 0.89
CC[C@@H](C(N)=O)N1CCCC1=O [levetiracetam]	rose essentially linearly and dose-dependently	4.4 to 4.9	ready penetration of the blood brain barrier	1.8 to 2.8	1.33 to 1.92	0.25 to 0.5
